Experimental data from publication PMC11093668 (Clinical Infectious Diseases: An Official Publication of …, 2023).
Read-outs that look alike come from different tables or passages of the source. Blank lines part the entries; values can stand above or below the compound they belong to.

Experiments:
[1] = human, in vivo
HIV [2] = test system: HIV; parameters: method as in ref 25 = [25]; 25 Fda, Cder . Reyataz (atazanavir sulfate) capsules label. Available at: www.fda.gov/medwatch . Accessed 17 September 2019.; settings: primary target minimum concentration; cited from earlier work
clinical = settings: human, in vivo, geometric mean (90% CI)
HIV [3] = test system: HIV; parameters: method as in ref 26 = [26]; 26 Gonzalez de Requena D , Bonora S , Canta F , et al Atazanavir trough is associated with efficacy and safety: definition of therapeutic range. In: 6th Intenational Workshop on Clinical Pharmacology; settings: secondary target; cited from earlier work
[4] = atazanavir co-administration; cited from earlier work

- AUC24, geometric mean (90% CI) [1]: 40 (35–46) mg·h/L
- Clearance/F, geometric mean (90% CI) [1]: 7.5 (6.6–8.7) L/h
- T1/2, geometric mean (90% CI) [1]: 11 (10–12) h
- Ctau, geometric mean ratio (90% CI) ([1]; 12 h): 0.98 (0.81–1.2)
- Ctau, geometric mean (90% CI) ([1]; 24 h): 0.59 (0.48–0.74) mg/L
- Ctau, geometric mean ratio (90% CI) ([1]; 24 h): 0.039 (0.032– 0.048)
- lowest Ctau, fold higher than PA-IC90 ([1]; 24 h): 12.7 fold
- proportion of Ctau below the limit of quantification (0.03 mg/L) ([1]; 24 h): 65%
- Cmax (clinical): 4600 ng/mL
Compound: COC(=O)N[C@H](C(=O)N[C@@H](Cc1ccccc1)[C@@H](O)CN(Cc1ccc(-c2ccccn2)cc1)NC(=O)[C@@H](NC(=O)OC)C(C)(C)C)C(C)(C)C [Atazanavir, atazanavir]
- protein-adjusted IC90 (PA-IC90) (HIV [2]): 0.014 µg/mL
- minimum effective concentration (MEC) (HIV [3]): 0.15 mg/L

- AUC24 (exposure) higher with dose escalation of ATV/r [1]: 1.6 fold
- Ctau higher with dose escalation of ATV/r ([1]; 12 h): 2 folds
Compound: C[C@@H]1CCO[C@H]2Cn3cc(C(=O)NCc4ccc(F)cc4F)c(=O)c(O)c3C(=O)N12 [Dolutegravir, dolutegravir]
- increase in dolutegravir exposure [4]: 91%

- Ctau higher with dose escalated ATV/r ([1]; 24 h): 40%
Compound: CO[C@H]1/C=C/O[C@@]2(C)Oc3c(C)c(O)c4c(O)c(c(/C=N/N5CCN(C)CC5)c(O)c4c3C2=O)NC(=O)/C(C)=C\C=C\[C@H](C)[C@H](O)[C@@H](C)[C@@H](O)[C@@H](C)[C@H](OC(C)=O)[C@@H]1C [Rifampicin, rifampicin]

- AUC24, geometric mean (90% CI) [1]: 9.5 (8.4 - 11) mg·h/L
- Clearance/F, geometric mean (90% CI) [1]: 11 (9.34 - 11.9 L/h
- T1/2, geometric mean (90% CI) [1]: 5.7 (5.4- 6.1) h
- Ctau, geometric mean (90% CI) ([1]; 24 h): 0.068 (0.060- 0.077) mg/L
Compound: CC(C)c1nc(CN(C)C(=O)N[C@H](C(=O)N[C@@H](Cc2ccccc2)C[C@H](O)[C@H](Cc2ccccc2)NC(=O)OCc2cncs2)C(C)C)cs1 [Ritonavir, ritonavir]
